Assay results from US8993617B2, “Ire1alpha endonuclease specific inhibitor with cytotoxic activity” (The Board of Trustees of the Leland Stanford Junior …, priority 2010, dated 2015).

Tests used:
XBP1-luciferase reporter = assay: XBP1-luciferase bioluminescence in transgenic XBP1-luc mice; format: in vivo; conditions: i.p.
Protocol: FIG. 2A is a bar graph showing that STF-083010 blocks bortezomib-induced XBP1 activity in vivo. Transgenic XBP1-luc mice were injected i.p. with drug vehicle (16% chremophor), 1 mg/kg bortezomib, or 1 mg/kg bortezomib and 60 mg/kg STF-083010 and bioluminescence was measured after 24 h. […] Error bars show s.e.m. of at least 4 animals.
FIG. 2B is a set of images of representative mice before and after treatment.
(§1) Human specimen isolation and assays. Bone marrow aspirates were obtained from MM patients after obtaining informed consent according to institutional guidelines. CD138+ plasma cells were selected by positive magnetic bead selection (StemCell Technologies, Vancouver, Canada) either after isolation of nucleated cells (patients 1-4) or directly (patients 5-8). Peripheral blood cells were obtained by Ficoll-Hypaque density centrifugation from separate control patients. Cell culture, reporter assays, RT-PCR, Western blotting, and bioluminescent imaging.

XBP1 mRNA splicing = assay: endogenous XBP1 mRNA splicing by RT-PCR in ER-stressed RPMI8226 cells; format: cell-based, human
Protocol: FIG. 1B is a gel electrophoresis image showing STF-083010 inhibiting endogenous XBP1 mRNA splicing. RPMI8226 cells were treated with 300 μM thapsigargin (Th), 60 μM STF-083010 or both for indicated amount of time and the relative XBP1 splicing was determined by RT-PCR. Solid arrow indicates the unspliced and broken arrow indicates the spliced form.
(§2) To confirm the molecular target, we analyzed the effect of STF-083010 on endogenous XBP1 mRNA splicing levels in control and ER-stressed RPMI8226 human MM cells (FIG. 1B). […] To establish that this effect was due to a direct interaction between STF-083010 and Ire1α, we analyzed Ire1α enzymatic activity in a cell free system. STF-083010 blocked Ire1α's endonuclease activity (FIG. 1E), without affecting its kinase activity (FIG. 1F).
as §1

hIre1α [1] = biological target: T1, hIre1α (Homo sapiens, UniProt O75460); assay: cell free Ire1α RNase (endonuclease) activity, HAC1 mRNA cleavage; format: biochemical; conditions: hIre1 with 32P HAC1 508 nt transcript, 30 min, 1-100 μM; read-out: half-maximal inhibition of HAC1 mRNA processing
T1 construct: hIre1α protein containing both Ire1 cytoplasmic kinase and RNase domains; made in house
T1 sequence (O75460 465-977 limits assumed): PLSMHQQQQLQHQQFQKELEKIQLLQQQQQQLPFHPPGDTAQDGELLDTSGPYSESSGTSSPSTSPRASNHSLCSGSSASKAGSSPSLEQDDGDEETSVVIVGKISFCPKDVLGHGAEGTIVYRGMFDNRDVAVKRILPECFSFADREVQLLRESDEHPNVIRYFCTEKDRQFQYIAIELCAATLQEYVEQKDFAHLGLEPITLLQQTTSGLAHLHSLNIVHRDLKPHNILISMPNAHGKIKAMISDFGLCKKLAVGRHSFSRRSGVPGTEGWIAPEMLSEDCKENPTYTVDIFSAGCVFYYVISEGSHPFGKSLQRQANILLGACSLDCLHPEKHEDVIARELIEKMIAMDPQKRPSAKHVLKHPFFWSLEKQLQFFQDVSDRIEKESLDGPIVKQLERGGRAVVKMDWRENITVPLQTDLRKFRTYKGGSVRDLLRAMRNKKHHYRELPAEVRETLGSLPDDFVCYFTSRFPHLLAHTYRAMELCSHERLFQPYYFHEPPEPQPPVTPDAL
Protocol: FIG. 1E is a gel electrophoresis image and a line graph showing the STF-083010 effect on cell free Ire1α RNase (endonuclease) activity. […] HAC1 mRNA cleavage reaction was analyzed by separation of products on denaturing polyacrylamide gels, followed by autoradiography. The line graph is the quantitation of HAC1 mRNA processing showing half-maximal inhibition at approximately 25 μM. Error bars represent s.e.m. of 3 independent experiments.
Chemical library screening. […] Autophosphorylation activity was determined with the addition of ^32P-γATP. Endonuclease activity was determined with the addition of radio-labeled HAC1 508 nt RNA substrate synthesized in vitro using α^32P-UTP (Nock S, Gonzalez T, Sidrauski C, Niwa M, Walter P. Purification and activity assays of the catalytic domains of the kinase/endoribonuclease Ire1p from Saccharomyces cerevisiae. Methods Enzymol. 2001; 342:3-10). […] Kinase activity and RNAse cleavage products were quantitated by PAGE and ^32P-γATP or ^32P-UTP autoradiography respectively.

hIre1α [2] = biological target: T1, hIre1α; assay: cell free Ire1α kinase activity (autophosphorylation, 32P-γATP); format: biochemical; conditions: 0-100 μM, 32P-γATP autophosphorylation
Protocol: FIG. 1F is a graph and gel that show the effect of STF-083010 on cell free Ire1α kinase activity, Upper: hIre1α was incubated with 32P-γATP and increasing concentrations (0-100 μM) of STF-083010. Ire1α autophosphorylation was analyzed by SDS-PAGE, followed by autoradiography to determine the amount of 32P incorporation (32P-hIRE). […] Error bars represent s.e.m. of 3 independent experiments.
Chemical library screening. The screen was performed in the Stanford High-Throughput Bioscience Center (HTBC). hIre1α protein containing both Ire1 cytoplasmic kinase and RNase domains was expressed and purified from baculovirus as described (Niwa M, Sidrauski C, Kaufman R J, Walter P. A role for presenilin-1 in nuclear accumulation of Ire1 fragments and induction of the mammalian unfolded protein response. Cell. 1999; 99:691-702). Autophosphorylation activity was determined with the addition of ^32P-γATP. Endonuclease activity was determined with the addition of radio-labeled HAC1 508 nt RNA substrate synthesized in vitro using α^32P-UTP (Nock S, Gonzalez T, Sidrauski C, Niwa M, Walter P. Purification and activity assays of the catalytic domains of the kinase/endoribonuclease Ire1p from Saccharomyces cerevisiae. Methods Enzymol. 2001; 342:3-10). […] Kinase activity and RNAse cleavage products were quantitated by PAGE and ^32P-γATP or ^32P-UTP autoradiography respectively.

sXBP1 protein = sXBP1 protein production by immunoblotting in MM cell lines; format: cell-based, human; conditions: 300 μM Th and 60 μM STF-083010
Protocol: FIG. 1C is set of a gel electrophoresis images showing STF-083010 inhibiting the production of sXBP1 protein but not the auto-phosphorylation of Ire1α. The left panel indicates MM cell lines that were treated for the indicated times with 300 μM Th and 60 μM STF-083010 and sXBP1 protein was detected by immunoblotting.
as §2, §1

Ire1α = biological target: T2, Ire1α (Homo sapiens, UniProt O75460); assay: Ire1α auto-phosphorylation by immunoblot in RPMI8226 cells; format: cell-based; conditions: 300 μM Th and 60 μM STF-083010
T2 construct: RPMI8226 cells were treated with 300 μM Th and 60 μM STF-083010; endogenous in cells; host or cells: RPMI8226 human multiple myeloma cells
T2 sequence (O75460 19-977): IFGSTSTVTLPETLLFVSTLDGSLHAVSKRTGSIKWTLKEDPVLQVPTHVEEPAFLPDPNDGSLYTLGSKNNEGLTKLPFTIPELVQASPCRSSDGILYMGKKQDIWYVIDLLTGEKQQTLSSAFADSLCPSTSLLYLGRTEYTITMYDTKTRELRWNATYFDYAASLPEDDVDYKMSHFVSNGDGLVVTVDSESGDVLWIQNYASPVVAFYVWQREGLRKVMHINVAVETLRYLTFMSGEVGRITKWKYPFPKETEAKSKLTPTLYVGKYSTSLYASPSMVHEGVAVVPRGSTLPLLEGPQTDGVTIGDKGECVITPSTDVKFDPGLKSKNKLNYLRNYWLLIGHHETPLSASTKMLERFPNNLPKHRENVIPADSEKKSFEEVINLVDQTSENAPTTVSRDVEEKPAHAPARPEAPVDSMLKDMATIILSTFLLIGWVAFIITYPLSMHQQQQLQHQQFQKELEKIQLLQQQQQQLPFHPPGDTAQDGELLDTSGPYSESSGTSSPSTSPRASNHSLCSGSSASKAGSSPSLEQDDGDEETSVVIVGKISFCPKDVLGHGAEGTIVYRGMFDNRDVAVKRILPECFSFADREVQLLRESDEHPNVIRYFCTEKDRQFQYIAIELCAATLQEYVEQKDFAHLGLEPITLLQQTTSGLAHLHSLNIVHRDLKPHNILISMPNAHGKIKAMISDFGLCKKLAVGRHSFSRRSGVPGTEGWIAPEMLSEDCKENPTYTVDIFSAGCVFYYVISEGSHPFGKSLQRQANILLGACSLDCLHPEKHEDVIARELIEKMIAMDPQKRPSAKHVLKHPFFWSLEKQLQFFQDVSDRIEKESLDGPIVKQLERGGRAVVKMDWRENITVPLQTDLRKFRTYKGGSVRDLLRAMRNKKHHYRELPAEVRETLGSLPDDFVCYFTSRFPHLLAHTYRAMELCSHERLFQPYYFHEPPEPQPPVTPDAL
Protocol: FIG. 1D is a set of gel electrophoresis images in which RPMI8226 cells were treated with 300 μM Th and 60 μM STF-083010 for the indicated times and the levels of phosphorylated and total Ire1α were detected using specific antibodies.

[3] = histology (H&E) of normal mouse tissues after treatment; format: in vivo; conditions: 60 mg/kg×1 and 30 mg/kg×2
Protocol: FIG. 3 is a set of images of the H&E stained sections of normal mouse tissues and RPMI8226 xenograft tumors treated with drug vehicle (16% chremophor in saline) or 30 mg/kg STF-083010 weekly for two weeks.

[4] = tested on: RPMI8226, MM.1S and MM.1R MM cells; assay: in vitro cytotoxicity in MM cell lines, trypan blue exclusion; format: cell-based, human; conditions: 0, 30 or 60 μM, viable cell number measured daily
Protocol: FIG. 2C is a set of line graphs showing in vitro cytotoxicity of STF-083010. RPMI8226, MM.1S and MM.1R MM cells that were treated with 0, 30 or 60 μM of STF-083010 and viable cell number was measured daily by the trypan blue exclusion method.
(§3) In order to determine anti-myeloma activity of STF-083010, first we treated a panel of MM cell lines with increasing concentrations of the compound in vitro and measured viability by trypan blue exclusion (FIG. 2C). […] Next, we treated RPMI8226 human MM cells grown as tumor xenografts in NSG mice. […] Additionally, we treated fresh CD138+ cells isolated from MM patients and compared the ex vivo toxicity to that of cells from 7 control patients (FIG. 2E, Tables 1,2).

RPMI8226 MM cells = assay: RPMI8226 subcutaneous tumor xenografts in NOD/SCID/IL2Rγ null mice; format: in vivo; conditions: intraperitoneal, 30 mg/kg once weekly for 2 weeks (d1, d8)
Protocol: FIG. 2D is a line graph showing the antitumor activity of STF-083010 in vivo. RPMI8226 MM cells were established as subcutaneous tumor xenografts in NOD/SCID/IL2Rγ null mice. When tumors reached an average volume of 150 mm3, 2 groups of 5 mice each were treated with 30 mg/kg STF-083010 or drug vehicle once weekly for 2 weeks.
as §3

[5] = tested on: CD138+ multiple myeloma cells; assay: ex vivo cytotoxicity in CD138+ cells from MM patients (Annexin V/Propidium Iodide); format: cell-based, human
Source text: MM cells were obtained by CD138+ selection from bone marrow samples from MM patients; lymphocytes were obtained by Ficoll density-gradient centrifugation of peripheral blood samples from control patients, followed by staining with anti CD3, anti CD19 and anti CD56 monoclonal antibodies to differentiate between T-, B- and NK cells.
Next, we treated RPMI8226 human MM cells grown as tumor xenografts in NSG mice. […] Additionally, we treated fresh CD138+ cells isolated from MM patients and compared the ex vivo toxicity to that of cells from 7 control patients (FIG. 2E, Tables 1,2).
as §1

CD3 positive T cells = assay: ex vivo cytotoxicity in peripheral blood T cells (7-aminoactinomycin D); format: cell-based, human; conditions: average of UPN 9-15
Protocol: (§4) FIG. 2E is a line graph showing that STF-083010 is preferentially cytotoxic against human MM cells. MM cells were obtained by CD138+ selection from bone marrow samples from MM patients; lymphocytes were obtained by Ficoll density-gradient centrifugation of peripheral blood samples from control patients, followed by staining with anti CD3, anti CD19 and anti CD56 monoclonal antibodies to differentiate between T-, B- and NK cells. Cells were cultured with the indicated concentrations of STF-083010 for 24 h and cell viability was measured by flow cytometric analysis of Annexin V/Propidium Iodide (MM) or 7-aminoactinomycin D (peripheral blood lymphocytes) stained samples.
as §3
(§5) Human specimen isolation and assays. Bone marrow aspirates were obtained from MM patients after obtaining informed consent according to institutional guidelines. […]

CD19 positive B cells = assay: ex vivo cytotoxicity in peripheral blood B cells (7-aminoactinomycin D); format: cell-based, human; conditions: average of UPN 9-15
Protocol: as §4, §3, §5

CD56 positive NK cells = assay: ex vivo cytotoxicity in peripheral blood NK cells (7-aminoactinomycin D); format: cell-based, human; conditions: average of UPN 9-15
Protocol: as §4, §3, §5

CC(C)C[C@H](NC(=O)[C@H](Cc1ccccc1)NC(=O)c1cnccn1)B(O)O [bortezomib, reference compound]
XBP1-luciferase bioluminescent activity after bortezomib alone (XBP1-luciferase reporter; 1 mg/kg bortezomib, 24 h): commensurate increase

C/C=C(/C)C(=O)O[C@H]1C(C)=C2[C@H]([C@@H]1OC(=O)CCCCCCC)[C@@](C)(OC(C)=O)C[C@H](OC(=O)CCC)[C@@]1(O)[C@H]2OC(=O)[C@@]1(C)O [thapsigargin, reference compound]
XBP1 splicing on incubation with thapsigargin alone (XBP1 mRNA splicing; RPMI8226 cells, 300 μM thapsigargin): resulted in XBP1 splicing

O=S(=O)(/N=C/c1c(O)ccc2ccccc12)c1cccs1 [STF-083010, (E)-N-((2-hydroxynaphthalen-1-yl)methylene)thiophene-2-sulfonamide]
IC50 (hIre1α [1]): ~25 µM | Ire1α kinase activity during co-incubation (hIre1α [2]): no significant change | XBP1 mRNA splicing induced by thapsigargin (XBP1 mRNA splicing; RPMI8226 cells, 300 μM thapsigargin (Th), 60 μM STF-083010): almost completely blocked | XBP1 splicing activated by other types of ER stress (XBP1 mRNA splicing; tunicamycin treatment, glucose deprivation or severe hypoxia (data not shown)): inhibited XBP1 splicing | production of active sXBP1 protein (sXBP1 protein): inhibited production of active sXBP1 protein | Ire1α kinase activity, immunoblot of autophosphorylated Ire1α (Ire1α): did not inhibit | XBP1-luciferase bioluminescent signal when injected with bortezomib (XBP1-luciferase reporter; 1 mg/kg bortezomib and 60 mg/kg STF-083010, 24 h): no increase in bioluminescent signal | histologic effects after treatment [3]: did not find any histologic effects | viability of MM cell lines [4]: cytostatic and cytotoxic activity in a dose- and time-dependent manner | growth of tumor xenografts (RPMI8226 MM cells): significantly inhibited | LD50 24 h in multiple myeloma cells, AVERAGE ([5]; average of UPN 1-8): 27.8 µM | cytotoxicity to CD138+ cells compared to B (CD19+), T (CD3+), and NK (CD56+) cells ([5]; ex vivo, 24 h): selectively cytotoxic | LD50 (24 h) CD3 positive, AVERAGE (CD3 positive T cells): 136.6 µM | LD50 (24 h) CD19 positive, AVERAGE (CD19 positive B cells): 73.1 µM | LD50 (24 h) CD56 positive, AVERAGE (CD56 positive NK cells): 71.3 µM
